Test [1] has as its target T1, F1-gp120 binding to CD4+ human cells (Human immunodeficiency virus type 1 group M subtype B, UniProt P04578).
T1 construct: Recombinant gp-120 was obtained from Raymond Sweet at Smith Kline Beecham and directly fluoresceinated; purchased Raymond Sweet at Smith Kline Beecham (obtained, not a catalogue product); host or cells: CD4+ human cells (Jurkat CD4+)
Briefly: Inhibition of fluoresceinated gp120 binding to CD4+ cells (flow microfluorimetry). The settings on record: compound 1 mg. The protocol:
This assay uses fluoresceinated gp120 and monitors its ability to bind to CD4+.
Recombinant gp-120 was obtained from Raymond Sweet at Smith Kline Beecham and directly fluoresceinated. Flow microfluorimetry was performed using a FACScan. Chen, et al., (1992) Proc. Nat'l. Acad. Sci. U.S.A., 89:5872-5876; Weiner, et al., (1990) Cancer Detection and Prevention, 14:317-320; and Weiner, et al., (1990) Vaccines, 339-345, discloses the assay was done using the CD4 related synthetic compounds or, separately, monoclonal anti-CD4 antibody as described.

Test [2] has as its system ABA delayed type hypersensitivity. Briefly: In vivo inflammation: delayed type hypersensitivity to azobenzenearsonate (ABA). Set-up: species or system mouse. To be noted: 100 μg total dose. The protocol:
The effects of macrocyclics on in vivo inflammation were examined as follows. The effects of cyclic compounds disclosed in Table I on in vivo inflammatory response to Azobenzenearsonate was performed using treated groups of ABA primed normal Balb/c or Va3.1 transgenic mice with either 1) intravenously administered anti-CD4 monoclonal antibodies, 2) intravenously administered anti-class II antibodies, 3) systemically administered soluble forms of the most efficacious constrained macrocyclics 4) intravenously administered ABA coupled mononuclear cells, and 5) control antibodies and control macrocyclics. […]
The delayed type hypersensitivity assay is performed as follows. Five days after priming a mouse with hapten coupled cells, the hind left footpad is measured using an engineer's caliper (Fowler). […] Twenty four hours later, the degree of swelling is measured in the footpad. […]
For priming, mice (normal or transgenic with a T-cell receptor that recognizes ABA) are injected subcutaneously in each flank using a 23 g needle with 0.1 ml of ABA- or TNP-coupled spleen cells (3×10^7).Five days later, ear thickness and footpad thickness is measured with a caliper. […] Twenty four hours after challenge, the ears and footpads are measured and the animals sacrificed by cervical dislocation. […]

In another test the test system is CD4+ T cells. In words: Blocking of T cell activation by tetanus toxoid (3H-TdR incorporation). To be noted: 10^4 T cells + tetanus toxoid, 48 hours. It is filed as cell-based. Set-up: dose or concentration left out as unconfirmed. The protocol: 10^4 blood monocytes were pulsed with […] of tetanus toxoid for
hours. 10^4 CD4+ T cells were added with the compounds […] in
a final volume of […] of media. The cells were pulsed with […]
HTdR and assayed at 48 hours.

For test [3], the system named is responder CD4+ T cells + allogeneic cells. Briefly: Blocking of the mixed lymphocyte response. It counts as cell-based, human. To be noted: .1 mg printed in table line. How it is done: Responder purified CD4+ T cells were used in a mixed lymphocyte response against completely allogeneic human cells. The compounds were added at 10 μg/ml final concentration. The number of responder cells was 10^5 and the number of stimulators 4×10^5 cells per well.

Another test concerns HIV-1MN. In words: Syncytium assay, HIV. It is filed as cell-based. To be noted: for syncytia: none 100. The protocol:
Chen, et al., (1992) Proc. Nat'l. Acad. Sci. U.S.A., 89:5872-5876; Weiner, et al. (1990) Cancer Detection and Prevention, 14:317-320, discloses Sup T1 cells are used as target cells because of their rapid and high degree of fusion when co-cultured with HIV-1 producing cell lines. Uninfected target cells were assayed by co-culture with HIV-infected cells (H9/IIIB.) Washed, HIV-infected cells are plated in 96-well plates (10^4 cells/well in RPMI 1640+10% FCS) and incubated for 30 min at 37° C. Target cells are then added at 5×10^5 /well and the number of syncytia is qualitatively determined after a 48-hour incubation period. CD4 forms to be tested are added at time 0 or 24 hours after the assay has been initiated. Graded doses are used, controls including random linear peptides are also added independently. sCD4 and antibodies to CD4 are used as positive controls.
Another neutralization assay which is used in the field is as follows. One hundred TCID50 of HIV-1/IIIB or HIV-1/MN cell-free virus is preincubated with serial dilutions of compounds for 1 hour at 37° C. Following incubation, the pretreated virus was then plated on 4×10^4 MT-2 target cells, for 1 hour at 37° C. The MT-2 cells were then washed 3 times and incubated at 37° C. with 5% CO2. Fusion was evaluated 3 days later quantitatively by counting the number of syncytia per well in triplicate under a phase contrast microscope. The neutralization value (the ability of a compound to inhibit HIV infection 0 Vn/Vo) is calculated by dividing the mean number of syncytia per well following treatment with specific antiserum by the mean number of syncytia per well without antiserum (see: Montefiori, et al., (1988) J. Clin. Microbiol., 26:231-235).

Another test deals with T2, sCD4 binding to DRb2 (Homo sapiens, UniProt P01911).
T2 construct: made in house
Briefly: CD4 receptor-DRb2 blocking: 125I-sCD4 binding to immobilized DRb2 peptide. How it is done: The peptidic fragment is first coupled to activated sepharose 4B (0.5 mg of peptide/ml of beads).
75 μg of the recombinant soluble CD4 was labelled with 2 mCi of Bolotn Hunter reagent (Dupont/New England Nuclear) in 100 mM sodium borate, pH 8.5, in a volume of 150 μl. The labelled CD4 was separated from the unconjugated reagent on a G-50 Sephadex column containing PBS/0.1% gelatin and stored at -70° C.
HPLC purified forms of the DRb2 peptide were prepared. The peptide ([…] in 0.1M ammonium bicarbonate, pH 7.8) was immobilized on Falcon microtiter plates by overnight exposure. After washing several times and blocking with 2% BSA in HBSS pH 7.6 for 2 hours we add […] of ^125 I labelled sCD4. After 1 hour at room temperature the wells are washed 5× and the radioactivity counted.

Experimental findings from US6100377A, “Constrained peptides” (The Trustees of the University of Pennsylvania, priority 1994, dated 2000) are described below.

Bridge positions count the residues as written; N and C are the ends. Ends that are not written are not given here. Peptide text beside a SMILES is read from it.

`CC(C)[C@@H]1NC(=O)[C@H](CCC(=O)O)NC(=O)[C@@H](NC(=O)[C@@H](N)Cc2ccccc2)CSSC[C@@H](C(=O)N[C@@H](Cc2ccc(O)cc2)C(=O)O)NC(=O)[C@H](CCC(=O)O)NC(=O)[C@H](CCCCN)NC(=O)[C@H](CCC(N)=O)NC(=O)[C@H](CC(=O)O)NC(=O)[C@H](CCC(=O)O)NC1=O` [SEQ ID NO:8, F, C, E, V, E, D, Q, K, E, C, Y] (H-FCEVEDQKECY-OH; disulfide 2-10): the % Inhibition – broadly, how much of the control response was suppressed – in test [1] turned out to be 83%.

Consider “CDR2R: macrocyclic compound modeled to bind to the reovirus receptor on activated T cells; probably SEQ ID NO:10 (FKTNKCIYSGSTCQF; disulfide 6-13 (inferred))”, for which the “reducing in vivo delayed type hypersensitivity to ABA” value in test [2] is reported as “efficacious”.

Take `CC(C)C[C@@H]1NC(=O)[C@@H](NC(=O)[C@@H](N)Cc2ccccc2)CSSC[C@@H](C(=O)N[C@@H](Cc2ccc(O)cc2)C(=O)O)NC(=O)[C@H](CC(C)C)NC(=O)[C@H](C(C)C)NC(=O)[C@H](CCC(N)=O)NC(=O)CNC(=O)[C@H](CO)NC(=O)[C@H](CC(=O)O)NC(=O)[C@H](CO)NC1=O` [SEQ ID NO:9, F, C, L, S, D, S, G, Q, V, L, C, Y] (H-FCLSDSGQVLCY-OH; disulfide 2-11): in test [1], the “% Inhibition” value amounted to 8%. Also, in the test with CD4+ T cells, the “% response” value is reported as 100%.

With “F, C, Y, I, C, E, V, E, D, Q, C, Y (FCYICEVEDQCY; also: cyclized, ring type and places not given here) [SEQ ID NO:7, CD4, 84-91 cyclized, CDR3-like, Human]”, in test [3], the “% inhibition of MLR” value is on record as 48%. In addition, the “(cpm)” value in test [3] (control 85,000) was 55,000 cpm. The results for the “% protection from syncytia” value in the test with HIV-1MN (6.125 μg) and in the test on HIV-1MN (12.5 μg) were 48% and 88%, respectively. Also, the syncytia with HIV-1MN (6.125 μg) is recorded as 35; in the test on HIV-1MN (12.5 μg) it was 15. The “% Inhibition” value in test [1] is on record as 75%. Further, the “Mean Channel Fluorescence” value in test [1] (none 21, background 9) is listed as 12. Besides, in the test with CD4+ T cells, the “% response” value is reported as 55%. Also, in the test on CD4+ T cells (none 45,090 cpm), the “3H-TdR incorporation (cpm)” value is given as 25,000 cpm. Further, the “% inhibition of sCD4 binding” value was determined as 48% with sCD4 binding to DRb2 (.1 mg compound, first experiment); 88% with sCD4 binding to DRb2 (.5 mg compound, first experiment); 100% with sCD4 binding to DRb2 (Experiment 2, amount not given). Moreover, the “Bound CD4 (cpm)” value turned out to be 2400 cpm in the test with sCD4 binding to DRb2 (.1 mg compound, first experiment (none 3600, no DRb2 1100)); 1400 cpm with sCD4 binding to DRb2 (.5 mg compound, first experiment (none 3600, no DRb2 1100)); 800 cpm with sCD4 binding to DRb2 (Experiment 2, amount not printed (none 2000, no DRb2 1100)).

On to `C[C@@H](O)[C@@H]1NC(=O)[C@@H](NC(=O)[C@@H](N)Cc2ccccc2)CSSC[C@@H](C(=O)N[C@@H](Cc2ccc(O)cc2)C(=O)O)NC(=O)[C@H](CCCCN)NC(=O)[C@H](CO)NC(=O)[C@@H]2CCCN2C(=O)CNC(=O)[C@H](CCCCN)NC1=O` [SEQ ID NO:3, F, C, T, K, G, P, S, K, C, Y] (H-FCTKGPSKCY-OH; disulfide 2-9), for which the “% Inhibition” value in test [1] is reported as 83%.

Regarding `CC(C)C[C@@H]1NC(=O)[C@H](Cc2ccccc2)NC(=O)[C@H](CO)NC(=O)CNC(=O)[C@H](CCC(N)=O)NC(=O)[C@H](CC(N)=O)NC(=O)[C@@H](NC(=O)[C@@H](N)Cc2ccc(O)cc2)CSSC[C@@H](C(=O)N[C@@H](Cc2ccc(O)cc2)C(=O)O)NC1=O` [SEQ ID NO:1, Y, C, N, Q, G, S, F, L, C, Y] (H-YCNQGSFLCY-OH; disulfide 2-9), the “% Inhibition” value in test [1] stood at 33%. Also, the “% response” value in the test on CD4+ T cells is 77%.
